{"source": "patent US20250109134A1", "about": "(Ascentage Pharma (Suzhou) Co., Ltd., priority 2022, published 2025)", "assay": "Polymorph screening (suspension, anti-solvent, gas-liquid diffusion, slow volatilization methods), resulting form by XRPD", "type": "physicochemical", "settings": "for Crystalline form results 25° C. / Crystalline form results 50° C. / Crystalline form results: suspension; for Crystalline form results 25° C. / Crystalline form results 50° C.: from crystalline form B; for Crystalline form: suspension method; for XRPD results: anti-solvent method, methanol solution, no precipitation, open-to-air volatilization; for Crystalline form results: 40° C., 3 days, from crystalline form A of sulfate salt", "experimental": "The sample was quickly centrifuged (6000 rpm, 5 min) to remove a supernatant. The resulting precipitate was subjected to vacuum drying (40° C., −0.1 MPa) for 20 h, followed by physical characterization.\nThe resulting precipitate was subjected to vacuum drying at 40° C. for 20 h, followed by physical characterization.\nNo clear solution was obtained, and the sample was still undissolved after 1 mL of solvent was added. Then, 500 μL of poor solvent (acetone, ACN, MeOH, EtOAc, THE, or […]) was added, and 40 mg of the sample was added to perform an experiment by a suspension method. All suspension samples were stirred at 50° C. for 2 days and quickly centrifuged (6000 rpm, 5 min) to remove a supernatant. The resulting solid was subjected to vacuum drying at 40° C. for 20 h, followed by physical characterization.\nThe compound of formula I was subjected to polymorph screening with DCM as a good solvent and with MeOH, EtOH, THE, or EA as an anti-solvent, and was dissolved in both DCM and MeOH systems. The suspension sample was stirred for 2 days and quickly centrifuged to remove a supernatant. The resulting precipitate was subjected to vacuum drying at 25° C. for 20 h, followed by physical characterization.\nThe resulting precipitate was subjected to vacuum drying at room temperature for 20 h, followed by physical characterization.\nThe resulting precipitate was subjected to vacuum drying for 20 h.\nSonication was performed for 1 min to obtain a clear solution, which was filtered through a 0.22 μm filter membrane and aliquoted into seven 8 mL glass flasks. An anti-solvent was added until precipitation occurred. The sample was stirred at room temperature for 1 day and quickly centrifuged. The resulting solid precipitate was subjected to vacuum drying.\nThen, an anti-solvent was added until precipitation occurred, and the mixture was stirred at room temperature overnight and quickly centrifuged (6000 rpm, 6 min) to remove a supernatant. The resulting precipitate was subjected to vacuum drying for 20 h.\nThen, the solution was added to a 20 mL glass flask containing 2 mL of an anti-solvent (shown in the following table), and the flask was tightly capped at room temperature and placed in a fume hood for diffusion. When precipitation occurred, the flask was taken out, and the resulting precipitate was subjected to vacuum drying for 20 h.\nThe flask placed in a fume hood at room temperature for diffusion. When precipitation occurred, the flask was taken out, and the resulting precipitate was subjected to vacuum drying for 20 h.\nThe mixture was stirred at 50° C. or room temperature for 6 days and quickly centrifuged (6000 rpm, […]) to remove a supernatant. The resulting precipitate was subjected to vacuum drying for 20 h.", "key": {"[1]": {"settings": "solvent Acetone-H2O = 1-2, 2 days"}}}
{"smiles": "CC(C)N1Cc2cc(C(F)(F)F)ncc2-c2cnc(NCc3c(F)ccc4c3CCO4)n3cnc(c23)C1=O", "note": "[crystalline form B]", "values": [{"measurement": "Crystalline form results 25° C.", "setting": "solvent ACN, 2 days", "result": "Crystalline form A"}, {"measurement": "Crystalline form results 50° C.", "setting": "solvent ACN, 2 days", "result": "Crystalline form A"}, {"measurement": "Crystalline form results 25° C.", "setting": "solvent ACN—H2O = 1-1, 2 days", "result": "Crystalline form A"}, {"measurement": "Crystalline form results 50° C.", "setting": "solvent ACN—H2O = 1-1, 2 days", "result": "Crystalline form A"}, {"measurement": "Crystalline form results 25° C.", "setting": "[1]", "result": "Crystalline form B"}, {"measurement": "Crystalline form results 50° C.", "setting": "[1]", "result": "Crystalline form B"}, {"measurement": "Crystalline form results 25° C.", "setting": "solvent Acetone, 2 days", "result": "Crystalline form B"}, {"measurement": "Crystalline form results 50° C.", "setting": "solvent Acetone, 2 days", "result": "Crystalline form B"}, {"measurement": "Crystalline form results 50° C.", "setting": "solvent EtOAc, 2 days", "result": "Crystalline form B"}, {"measurement": "Crystalline form results 25° C.", "setting": "solvent EtOH, 2 days", "result": "Crystalline form B"}, {"measurement": "Crystalline form results 50° C.", "setting": "solvent EtOH, 2 days", "result": "Crystalline form A"}, {"measurement": "Crystalline form results 25° C.", "setting": "solvent EtOH—H2O 1-1, 2 days", "result": "Crystalline form B"}, {"measurement": "Crystalline form results 50° C.", "setting": "solvent EtOH—H2O 1-1, 2 days", "result": "Crystalline form A"}, {"measurement": "Crystalline form results 25° C.", "setting": "solvent EtOH—H2O = 3-1, 2 days", "result": "Crystalline form B"}, {"measurement": "Crystalline form results 50° C.", "setting": "solvent EtOH—H2O = 3-1, 2 days", "result": "Crystalline form A"}, {"measurement": "Crystalline form results 25° C.", "setting": "solvent H2O, 2 days", "result": "Crystalline form B"}, {"measurement": "Crystalline form results 50° C.", "setting": "solvent H2O, 2 days", "result": "Crystalline form B"}, {"measurement": "Crystalline form results 25° C.", "setting": "solvent Heptane, 2 days", "result": "Crystalline form B"}, {"measurement": "Crystalline form results 25° C.", "setting": "solvent MTBE, 2 days", "result": "Crystalline form E"}, {"measurement": "Crystalline form results 50° C.", "setting": "solvent MTBE, 2 days", "result": "Crystalline form G"}, {"measurement": "Crystalline form results 25° C.", "setting": "solvent MeOH, 2 days", "result": "Crystalline form A"}, {"measurement": "Crystalline form results 50° C.", "setting": "solvent MeOH, 2 days", "result": "Crystalline form A"}, {"measurement": "Crystalline form results 25° C.", "setting": "solvent MeOH—H2O 1-1, 2 days", "result": "Crystalline form F"}, {"measurement": "Crystalline form results 50° C.", "setting": "solvent MeOH—H2O 1-1, 2 days", "result": "Crystalline form A"}, {"measurement": "Crystalline form results 25° C.", "setting": "solvent MeOH—H2O = 3-1, 2 days", "result": "Crystalline form A"}, {"measurement": "Crystalline form results 25° C.", "setting": "solvent THF, 2 days", "result": "Crystalline form B"}, {"measurement": "Crystalline form results 50° C.", "setting": "solvent THF, 2 days", "result": "Crystalline form B"}, {"measurement": "Crystalline form results 25° C.", "setting": "solvent Toluene, 2 days", "result": "Toluene solvate"}]}
{"smiles": "CC(C)N1Cc2cc(C(F)(F)F)ncc2-c2cnc(NCc3c(F)ccc4c3CCO4)n3cnc(c23)C1=O", "note": "[compound of formula I]", "values": [{"measurement": "Crystalline form", "setting": "solvent DCM/EA = 1-1, stirred 2 days", "result": "Crystalline form A"}, {"measurement": "Crystalline form", "setting": "solvent DCM/EtOH = 2-1, stirred 2 days", "result": "Crystalline form A"}, {"measurement": "Crystalline form", "setting": "solvent DCM/THF = 1-1, stirred 2 days", "result": "Crystalline form A"}, {"measurement": "Crystalline form", "setting": "solvent DCM, stirred 2 days", "result": "Crystalline form A"}, {"measurement": "Crystalline form", "setting": "solvent DMF/H2O = 1/3, 50° C., 2 days", "result": "Crystalline form B + DMF solvate"}, {"measurement": "Crystalline form", "setting": "solvent DMF, 50° C., 2 days", "result": "Crystalline form B + DMF solvate"}, {"measurement": "Crystalline form", "setting": "solvent NMP/ACN = 1/3, 50° C., 2 days", "result": "N-methyl-2-pyrrolidone solvate"}, {"measurement": "Crystalline form", "setting": "solvent NMP/EtOAc = 1/3, 50° C., 2 days", "result": "N-methyl-2-pyrrolidone solvate"}, {"measurement": "Crystalline form", "setting": "solvent NMP/H2O = 1/3, 50° C., 2 days", "result": "Crystalline forms A + B"}, {"measurement": "Crystalline form", "setting": "solvent NMP/MeOH = 1/3, 50° C., 2 days", "result": "N-methyl-2-pyrrolidone solvate"}, {"measurement": "Crystalline form", "setting": "solvent NMP/THF = 1/3, 50° C., 2 days", "result": "N-methyl-2-pyrrolidone solvate"}, {"measurement": "Crystalline form", "setting": "solvent NMP/acetone = 1/3, 50° C., 2 days", "result": "N-methyl-2-pyrrolidone solvate"}, {"measurement": "Crystalline form", "setting": "solvent NMP, 50° C., 2 days", "result": "N-methyl-2-pyrrolidone solvate"}]}
{"smiles": "CC(C)N1Cc2cc(C(F)(F)F)ncc2-c2cnc(NCc3c(F)ccc4c3CCO4)n3cnc(c23)C1=O.O=S(=O)(O)O", "values": [{"measurement": "XRPD results", "setting": "anti-solvent Acetone", "result": "Crystalline form B"}, {"measurement": "XRPD results", "setting": "anti-solvent Heptane", "result": "Crystalline form A"}, {"measurement": "Crystalline form results", "setting": "solvent 88% acetone", "result": "Crystalline form B"}, {"measurement": "Crystalline form results", "setting": "solvent ACN", "result": "Crystalline form A of sulfate salt"}, {"measurement": "Crystalline form results", "setting": "solvent ACN—H2O = 1:1", "result": "Crystalline form A"}, {"measurement": "Crystalline form results", "setting": "solvent Acetone", "result": "Crystalline form A of sulfate salt"}, {"measurement": "Crystalline form results", "setting": "solvent DCM/MeOH = 1:1", "result": "Crystalline form A"}, {"measurement": "Crystalline form results", "setting": "solvent EtOAc", "result": "Sulfate salt forming into sulfate"}, {"measurement": "Crystalline form results", "setting": "solvent EtOH", "result": "Sulfate salt forming into sulfate"}, {"measurement": "Crystalline form results", "setting": "solvent EtOH—H2O = 3:1", "result": "Crystalline form A"}, {"measurement": "Crystalline form results", "setting": "solvent IPA", "result": "Sulfate salt forming into sulfate"}, {"measurement": "Crystalline form results", "setting": "solvent MeOH", "result": "Crystalline form A"}, {"measurement": "Crystalline form results", "setting": "solvent MeOH—H2O = 3:1", "result": "Crystalline form A"}, {"measurement": "Crystalline form results", "setting": "solvent THF", "result": "Crystalline form A of sulfate salt"}, {"measurement": "Crystalline form results", "setting": "solvent Toluene", "result": "Crystalline form A of sulfate salt"}]}
